According to US11976083B2, “Inhibitors of peptidylarginine deiminases” (Gilead Sciences, Inc., priority 2020, dated 2024):

biological target: T1, human PAD4 (Homo sapiens, UniProt Q9UM07); assay: In vitro PAD4 BAEE biochemical assay; conditions: BAEE substrate 3 mM, 5 nM PAD4, 2 mM calcium chloride; geometric mean of multiple experiments
T1 construct: human PAD4 (NM_012387), A2-P663, was PCR amplified; His-SUMO (N, cleaved yes); made in house; host or cells: E. coli BL21(DE3)
Outline: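 Recombinant PAD4 (5 nM final) with 2 mM CaCl2 was preincubated with compound for 30 min at 25 °C in MOPS pH 7.6 buffer with DTT, then reacted with 3 mM BAEE for 2 h at 25 °C. Released ammonia was detected fluorimetrically with o-phthalaldehyde/DTT; IC50 from four-parameter fit, geometric mean of experiments.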

T1 sequence (Q9UM07 2-663): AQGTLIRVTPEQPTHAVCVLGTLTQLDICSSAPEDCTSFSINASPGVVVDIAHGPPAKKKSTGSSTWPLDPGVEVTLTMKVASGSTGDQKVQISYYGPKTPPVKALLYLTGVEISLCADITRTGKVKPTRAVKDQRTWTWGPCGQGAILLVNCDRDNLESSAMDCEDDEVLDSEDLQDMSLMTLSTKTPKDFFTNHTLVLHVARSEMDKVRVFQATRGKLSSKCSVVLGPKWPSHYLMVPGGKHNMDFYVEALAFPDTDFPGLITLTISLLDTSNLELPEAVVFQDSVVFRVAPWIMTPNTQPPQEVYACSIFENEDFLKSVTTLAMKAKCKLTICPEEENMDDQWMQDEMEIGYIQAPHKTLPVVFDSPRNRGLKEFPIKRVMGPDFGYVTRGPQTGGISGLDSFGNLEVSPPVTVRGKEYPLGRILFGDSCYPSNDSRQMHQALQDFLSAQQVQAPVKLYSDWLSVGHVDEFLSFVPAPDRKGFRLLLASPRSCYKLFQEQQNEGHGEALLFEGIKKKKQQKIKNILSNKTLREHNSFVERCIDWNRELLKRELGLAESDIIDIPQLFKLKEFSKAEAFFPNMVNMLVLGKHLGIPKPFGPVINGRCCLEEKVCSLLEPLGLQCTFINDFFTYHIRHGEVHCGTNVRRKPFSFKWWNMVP

Row | Compound | IC50
1 | COc1cc(C(=O)N2CCC[C@@H](N)C2)cc2nc(-c3cc4ccc5cc4n3CCCCCCC3(CC3)C(=O)N[C@@H]5C)n(C)c12 [Example 155, (11~{R})-17-[5-[(3~{R})-3-aminopiperidine-1-carbonyl]-7-methoxy-1-methyl-benzimidazol-2-yl]-11-methyl-spiro[1,10-diazatricyclo[10.5.2.0^{15,18}]nonadeca-12(19),13,15(18),16-tetraene-8,1′-cyclopropane]-9-one] | 77 nM
2 | C[C@H]1NC(=O)[C@@H]2C[C@H]2CCCCCn2c(-c3nc4cc(C(=O)N[C@H]5CNCC[C@@H]5F)c(F)cc4n3[C@H]3C[C@H]3F)cc3ccc1nc32 [Example 826, 6-fluoro-1-[(1~{S},2~{R})-2-fluorocyclopropyl]-~{N}-[(3~{S),4~{S})-4-fluoro-3-piperidyl]-2-[(2~{R},5~{R},7~ {R})-2-methyl-4-oxo-3,13,19-triazatetracyclo [11.5.2.0^{5,7}.0^{16,20}]icosa-1(19),14,16(20),17-tetraen-14-yl]benzimidazole-5-carboxamide] | 31 nM
3 | COc1cc(C(=O)N2CCC[C@@H](N)C2)cc2nc(-c3cc4ccc5nc4n3CCCCCCC3(CC3)C(=O)N[C@@H]5C)n(C)c12 [Example 233, (11~{R})-17-[5-[(3~{R})-3-aminopiperidine-1-carbonyl]-7-methoxy-1-methyl-benzimidazol-2-yl]-11-methyl-spiro[1,10,19-triazatricyclo[10.5.2.0^{15,18}]nonadeca-12(19),13,15(18),16-tetraene-8,1′-cyclopropane]-9-one] | 82 nM
4 | COc1cc(C(=O)N2[C@H]3CC[C@@H]2[C@H](N)C3)cc2nc(-c3cc4ccc5cc4n3CCCCCOC(C)(C)C(=O)N[C@@H]5C)n(C)c12 [Example 222, (11~{R})-17-[5-[(1~{R},2~{R},4~{S})-2-amino-7-azabicyclo[2.2.1]heptane-7-carbonyl]-7-methoxy-1-methyl-benzimidazol-2-yl]-8,8,11-trimethyl-7-oxa-1,10-diazatricyclo[10.5.2.0^{15,18}]nonadeca-12(19),13,15(18),16-tetraen-9-one] | 64 nM
5 | COc1cc(C(=O)N2CC[C@@H](OC(F)F)[C@@H](N)C2)cc2nc(-c3cc4ccc5nc4n3CC(F)(F)CCC[C@@H]3C[C@H]3C(=O)N[C@@H]5C)n(C)c12 [Example 850, (2~{R},5~{R},7~{R})-14-[5-[(3~{S},4~{R})-3-amino-4-(difluoromethoxy)piperidine-1-carbonyl]-7-methoxy-1-methyl-benzimidazol-2-yl]-11,11-difluoro-2-methyl-3,13,19-triazatetracyclo[11.5.2.0^ {5,7}.0^{16,20}]icosa-1(19), 14,16(20),17-tetraen-4-one] | 64 nM
6 | COc1cc(C(=O)N2CC[C@H]3OCCN[C@H]3C2)cc2nc(-c3cc4ccc5nc4n3CCCCCCC3(CC3)C(=O)N[C@@H]5C)n(C)c12 [Example 343, (11~{R})-17-[5-[(4~{a}~{S),8~{a}~{R})-2,3,4,4~{a},5,7,8,8~{a}-octahydropyrido[4,3-b][1,4]oxazine-6-carbonyl]-7-methoxy-1-methyl-benzimidazol-2-yl]-11-methyl-spiro[1,10,19-triazatricyclo[10.5.2.0^{15,18}]nonadeca-12(19),13,15(18),16-tetraene-8,1′-cyclopropane]-9-one] | 371 nM
7 | COc1cc(C(=O)N2CC[C@@H](OC)[C@@H](N)C2)cc2nc(-c3cc4ccc5nc4n3CCCCCCc3nccnc3C(=O)N[C@@H]5C)n(C)c12 [Example 606, (2~{R})-18-[5-[(3~{S},4~ {R})-3-amino-4-methoxy-piperidine-1-carbonyl]-7-methoxy-1-methyl-benzimidazol-2-yl]-2-methyl-3,6,9,17,23-pentazatetracyclo[15.5.2.0^ {5,10}.0^{20,24}]tetracosa-1(23),5(10),6,8,18,20(24), 21-heptaen-4-one] | 129 nM
8 | COc1cc(C(=O)N2[C@H]3CC[C@@H]2[C@H](N)C3)cc2nc(-c3cc4ccc5nc4n3CCCCC[C@H](OC)C(C)(C)C(=O)N[C@@H]5C)n(C)c12 [Example 220, (7~{S),11~{R})-17-[5-[(1~{R},2~{R},4~{S})-2-amino-7-azabicyclo[2.2.1]heptane-7-carbonyl]-7-methoxy-1-methyl-benzimidazol-2-yl]-7-methoxy-8,8,11-trimethyl-1,10,19-triazatricyclo[10.5.2.0^{15,18}]nonadeca-12(19),13,15(18),16-tetraen-9-one] | 49 nM
9 | C[C@H]1NC(=O)[C@@H]2C[C@H]2CCCC(F)(F)Cn2c(-c3nc4cc(C(=O)N5C[C@H](N)[C@@H]6CC[C@H]5C6)cc(F)c4n3C3CC3)cc3cc(F)c1cc32 [Example 464, (2~{R},5~{R},7~{R})-14-[5-[(1~{S},4~{R},5~{R})-4-amino-2-azabicyclo[3.2.1]octane-2-carbonyl]-1-cyclopropyl-7-fluoro-benzimidazol-2-yl]-11,11,18-trifluoro-2-methyl-3,13-diazatetracyclo[11.5.2.0^{5,7}.0^{16,20}] icosa-1(19),14,16(20),17-tetraen-4-one] | 28 nM
10 | C[C@H]1NC(=O)c2ccc(Cl)nc2CCCCCn2c(-c3nc4cc(C(=O)N5CC[C@H]6CC[C@@H]5[C@@H]6N)cc(F)c4n3C3CC3)cc3ccc1nc32 [Example 774, (2~{R})-17-[5-[(1~{R},5~{R}, 8~{R})-8-amino-2-azabicyclo [3.2.1]octane-2-carbonyl]-1-cyclopropyl-7-fluoro-benzimidazol-2-yl]-8-chloro-2-methyl-3,9,16,22-tetrazatetracyclo[14.5.2.0^ {5,10).0^{19,23}]tricosa-1(22),5(10),6,8,17,19(23),20-heptaen-4-one] | 33 nM
11 | COc1cc(C(=O)N2[C@H]3CC[C@@H]2[C@H](N)C3)cc2nc(-c3cc4ccc5nc4n3CCCCCCn3ccc(n3)C(=O)N[C@@H]5C)c(C)n12 [Example 36, (2~{R})-16-[7-[(1~{R},2~{R},4~{S})-2-amino-7-azabicyclo[2.2.1]heptane-7-carbonyl]-5-methoxy-3-methyl-imidazo[1,2-a]pyridin-2-yl]-2-methyl-3,8,15,21,23-pentazatetracyclo[13.5.2.1^{5,8}.0^{18,22}] tricosa-1(21),5(23),6,16,18(22),19-hexaen-4-one] | 372 nM

Continued by falling IC50, values first:

Row | IC50 | Compound
12 | 371 nM | COc1cc(C(=O)N(C)[C@H]2CNCC[C@@H]2F)cc2nc(-c3cc4ccc5nc4n3CCCCCCC(C)(C)C(=O)N[C@@H]5C)n(C)c12 [Example 514, ~{N}-[(3~{S},4~{S})-4-fluoro-3-piperidyl]-7-methoxy-~{N},1-dimethyl-2-[(11~{R})-8,8,11-trimethyl-9-oxo-1,10,19-triazatricyclo[10.5.2.0^ {15,18}]nonadeca-12(19),13,15(18),16-tetraen-17-yl]benzimidazole-5-carboxamide]
13 | 86 nM | COc1cc(C(=O)N2CC[C@@H](OCC3CC3)[C@@H](N)C2)cc2nc(-c3cc4ccc5nc4n3CCCCC[C@@H]3C[C@H]3C(=O)N[C@@H]5C)n(C)c12 [Example 490, (2~{R},5~{R},7~{R})-14-[5-[(3~{S},4~{R})-3-amino-4-(cyclopropylmethoxy)piperidine-1-carbonyl]-7-methoxy-1-methyl-benzimidazol-2-yl]-2-methyl-3,13,19-triazatetracyclo [11.5.2.0^{5,7}.0^{16,20}] icosa-1(19),14,16(20), 17-tetraen-4-one]
14 | 69 nM | COc1cc(C(=O)N2CCC[C@@H](N)C2)cc2nc(-c3cc4ccc5nc4n3C[C@@H]3C[C@H]3CCCC(C)C(=O)N[C@@H]5C)n(C)c12 (stereo partly drawn) [Example 272, (3~{R},5~{R},12~{R})-18-[5-[(3~{R})-3-aminopiperidine-1-carbonyl]-7-methoxy-1-methyl-benzimidazol-2-yl]-9,12-dimethyl-1,11,20-triazatetracyclo[11.5.2.0^{3,5}.0^{16,19}] icosa-13(20),14,16(19),17-tetraen-10-one]
15 | 60 nM | COc1cc(C(=O)N2CC[C@@H](OC)[C@@H](N)C2)cc2nc(-c3cc4ccc5nc4n3CCCCCc3ccnc(Cl)c3C(=O)N[C@@H]5C)n(C)c12 [Example 655, (2~{R})-17-[5-[(3~{S},4~{R})-3-amino-4-methoxy-piperidine-1-carbonyl]-7-methoxy-1-methyl-benzimidazol-2-yl]-6-chloro-2-methyl-3,7,16,22-tetrazatetracyclo[14.5.2.0^ {5,10}.0^{19,23}] tricosa-1(22),5,7,9,17,19(23), 20-heptaen-4-one]
16 | 27 nM | COc1cc(C(=O)N2C[C@H](N)[C@@H]3CC[C@H]2C3)cc2nc(-c3cc4ccc5nc4n3CCCCCC[C@H](c3ccccn3)C(=O)N[C@@H]5C)n(C)c12 [Example 892, (8~{R},11~{R})-17-[5-[(1~{S},4~{R},5~{R})-4-amino-2-azabicyclo[3.2.1]octane-2-carbonyl]-7-methoxy-1-methyl-benzimidazol-2-yl]-11-methyl-8-(2-pyridyl)-1,10,19-triazatricyclo[10.5.2.0^{15,18}] nonadeca-12(19), 13,15(18),16-tetraen-9-one]
17 | 22 nM | C[C@H]1NC(=O)[C@@H]2C[C@H]2CCCCCn2c(-c3nc4cc(C(=O)N5C[C@H](N)[C@@H]6CC[C@H]5C6)cc(F)c4n3C3CC3)cc3ccc1nc32 [Example 882, (2~{R},5~{R},7~{R})-14-[5-[(1~{S),4~{R},5~{R})-4-amino-2-azabicyclo [3.2.1]octane-2-carbonyl]-1-cyclopropyl-7-fluoro-benzimidazol-2-yl]-2-methyl-3,13,19-triazatetracyclo[11.5.2.0^ {5,7}.0^{16,20}]icosa-1(19),14,16(20),17-tetraen-4-one]
18 | 18 nM | (2~{R})-17-[5-[(1~{S}, 4~{R},5~{R})-4-amino-2- azabicyclo[3.2.1]octane-2- carbonyl]-1-cyclopropyl- 7-fluoro-benzimidazol-2-yl]- 6-(difluoromethyl)-2- methyl-3,7,16,22- tetrazatetracyclo[14.5.2.0^ {5,10}.0^{19,23}]tricosa- 1(22),5(10),6,8,17,19(23),20- heptaen-4-one [Example 718]
